The values below come from paper PMC11207571, “Applicability of MDR1 Overexpressing Abcb1KO-MDCKII Cell Lines for Investigating In Vitro Species Differences and Brain Penetration Prediction” (Pharmaceutics, 2024).

T3 sequence (Q6PSM0 1-1272): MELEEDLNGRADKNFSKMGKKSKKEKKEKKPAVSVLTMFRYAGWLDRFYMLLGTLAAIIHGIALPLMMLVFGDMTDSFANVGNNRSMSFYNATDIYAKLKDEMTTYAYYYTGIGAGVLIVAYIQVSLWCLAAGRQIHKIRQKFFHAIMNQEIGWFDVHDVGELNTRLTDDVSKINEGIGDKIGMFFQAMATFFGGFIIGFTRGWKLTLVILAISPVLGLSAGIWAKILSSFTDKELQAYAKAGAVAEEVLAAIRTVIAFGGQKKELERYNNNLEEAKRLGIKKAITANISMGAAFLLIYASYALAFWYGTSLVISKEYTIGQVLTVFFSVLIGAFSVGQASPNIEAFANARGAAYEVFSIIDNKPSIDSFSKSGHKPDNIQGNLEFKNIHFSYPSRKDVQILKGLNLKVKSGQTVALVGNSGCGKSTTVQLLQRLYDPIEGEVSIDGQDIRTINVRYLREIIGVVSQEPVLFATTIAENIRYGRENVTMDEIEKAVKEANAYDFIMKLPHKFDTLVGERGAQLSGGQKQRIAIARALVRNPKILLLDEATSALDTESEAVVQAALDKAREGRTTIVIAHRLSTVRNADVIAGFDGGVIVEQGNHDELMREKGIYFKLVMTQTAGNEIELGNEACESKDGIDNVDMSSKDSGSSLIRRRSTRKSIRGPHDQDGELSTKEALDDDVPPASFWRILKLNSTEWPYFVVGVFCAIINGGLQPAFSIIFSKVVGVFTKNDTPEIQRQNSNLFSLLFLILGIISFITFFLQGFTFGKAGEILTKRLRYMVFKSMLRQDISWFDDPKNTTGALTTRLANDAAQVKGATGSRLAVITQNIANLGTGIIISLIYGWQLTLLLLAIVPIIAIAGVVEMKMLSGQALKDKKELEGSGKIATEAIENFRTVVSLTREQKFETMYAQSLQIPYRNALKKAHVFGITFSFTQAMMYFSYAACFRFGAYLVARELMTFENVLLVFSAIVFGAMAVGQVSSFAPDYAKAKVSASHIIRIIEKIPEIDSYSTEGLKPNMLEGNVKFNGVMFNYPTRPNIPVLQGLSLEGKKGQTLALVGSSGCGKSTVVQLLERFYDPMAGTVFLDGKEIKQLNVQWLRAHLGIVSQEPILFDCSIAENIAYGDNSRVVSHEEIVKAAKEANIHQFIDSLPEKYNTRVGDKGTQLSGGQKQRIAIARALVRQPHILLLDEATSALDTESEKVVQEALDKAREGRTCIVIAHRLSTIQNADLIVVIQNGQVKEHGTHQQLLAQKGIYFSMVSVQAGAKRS
T1 sequence (P08183 whole entry): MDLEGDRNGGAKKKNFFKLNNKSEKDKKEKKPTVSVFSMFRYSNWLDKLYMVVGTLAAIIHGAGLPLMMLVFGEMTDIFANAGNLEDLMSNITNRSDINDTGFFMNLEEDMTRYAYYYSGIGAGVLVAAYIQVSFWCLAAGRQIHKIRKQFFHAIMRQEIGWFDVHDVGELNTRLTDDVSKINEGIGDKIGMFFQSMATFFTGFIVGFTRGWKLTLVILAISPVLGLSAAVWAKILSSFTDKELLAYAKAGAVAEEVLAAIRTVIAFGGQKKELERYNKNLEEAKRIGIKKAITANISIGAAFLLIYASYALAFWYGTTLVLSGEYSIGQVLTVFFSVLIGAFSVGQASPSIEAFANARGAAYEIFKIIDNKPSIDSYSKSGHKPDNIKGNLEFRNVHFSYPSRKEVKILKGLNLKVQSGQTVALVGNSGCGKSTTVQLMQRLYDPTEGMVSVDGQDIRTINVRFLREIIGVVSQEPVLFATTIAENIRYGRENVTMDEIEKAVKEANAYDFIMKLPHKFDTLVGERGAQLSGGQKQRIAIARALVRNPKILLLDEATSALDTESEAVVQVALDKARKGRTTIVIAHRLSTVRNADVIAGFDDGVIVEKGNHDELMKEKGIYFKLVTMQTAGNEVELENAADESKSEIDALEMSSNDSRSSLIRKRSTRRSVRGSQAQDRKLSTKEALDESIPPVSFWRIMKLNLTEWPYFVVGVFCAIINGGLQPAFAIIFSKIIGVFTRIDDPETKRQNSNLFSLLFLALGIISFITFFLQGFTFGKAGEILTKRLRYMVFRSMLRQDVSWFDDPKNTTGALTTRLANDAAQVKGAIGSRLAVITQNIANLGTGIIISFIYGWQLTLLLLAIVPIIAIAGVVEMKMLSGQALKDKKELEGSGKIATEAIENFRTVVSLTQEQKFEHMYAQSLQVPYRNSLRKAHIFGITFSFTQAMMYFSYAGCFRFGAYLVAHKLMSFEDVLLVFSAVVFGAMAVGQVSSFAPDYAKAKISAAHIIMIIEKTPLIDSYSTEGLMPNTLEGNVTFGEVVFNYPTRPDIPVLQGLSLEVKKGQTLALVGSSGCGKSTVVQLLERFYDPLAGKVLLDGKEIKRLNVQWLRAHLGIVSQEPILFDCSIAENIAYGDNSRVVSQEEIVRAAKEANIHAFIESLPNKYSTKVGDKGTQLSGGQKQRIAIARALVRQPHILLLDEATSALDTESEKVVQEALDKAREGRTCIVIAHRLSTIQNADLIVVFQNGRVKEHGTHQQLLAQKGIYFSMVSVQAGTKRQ
T2 sequence (P21447 whole entry): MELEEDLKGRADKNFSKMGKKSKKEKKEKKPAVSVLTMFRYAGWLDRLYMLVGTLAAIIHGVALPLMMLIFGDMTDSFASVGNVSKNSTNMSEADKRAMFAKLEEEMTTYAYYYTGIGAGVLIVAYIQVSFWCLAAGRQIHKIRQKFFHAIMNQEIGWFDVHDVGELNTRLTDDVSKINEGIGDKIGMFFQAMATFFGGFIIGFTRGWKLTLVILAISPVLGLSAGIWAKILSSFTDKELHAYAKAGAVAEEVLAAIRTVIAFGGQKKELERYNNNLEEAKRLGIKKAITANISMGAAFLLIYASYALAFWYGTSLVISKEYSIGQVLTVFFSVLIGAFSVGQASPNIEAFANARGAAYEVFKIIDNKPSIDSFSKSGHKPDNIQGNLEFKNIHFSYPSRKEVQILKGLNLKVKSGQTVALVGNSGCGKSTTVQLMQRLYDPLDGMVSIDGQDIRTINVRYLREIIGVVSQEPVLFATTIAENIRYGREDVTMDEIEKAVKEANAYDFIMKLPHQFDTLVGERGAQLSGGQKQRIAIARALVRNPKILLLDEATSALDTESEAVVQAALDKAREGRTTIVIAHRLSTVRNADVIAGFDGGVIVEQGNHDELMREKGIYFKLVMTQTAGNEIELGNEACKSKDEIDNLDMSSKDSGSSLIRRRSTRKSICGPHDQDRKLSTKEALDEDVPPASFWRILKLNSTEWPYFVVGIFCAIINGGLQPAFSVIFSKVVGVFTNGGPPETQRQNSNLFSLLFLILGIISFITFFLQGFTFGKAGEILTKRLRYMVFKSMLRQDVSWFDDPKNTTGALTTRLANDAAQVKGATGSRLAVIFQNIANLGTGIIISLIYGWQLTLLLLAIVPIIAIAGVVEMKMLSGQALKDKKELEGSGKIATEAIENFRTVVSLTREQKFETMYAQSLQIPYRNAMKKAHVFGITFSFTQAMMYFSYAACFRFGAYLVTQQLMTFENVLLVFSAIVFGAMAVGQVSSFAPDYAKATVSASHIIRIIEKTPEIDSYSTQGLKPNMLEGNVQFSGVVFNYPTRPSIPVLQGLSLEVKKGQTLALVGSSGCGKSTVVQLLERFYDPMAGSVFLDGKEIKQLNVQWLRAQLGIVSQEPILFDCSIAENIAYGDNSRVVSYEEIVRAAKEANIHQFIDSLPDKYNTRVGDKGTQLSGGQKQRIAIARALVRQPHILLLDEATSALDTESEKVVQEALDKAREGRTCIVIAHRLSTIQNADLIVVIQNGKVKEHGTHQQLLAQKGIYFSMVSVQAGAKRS

One data set has as its target T1, human MDR1 (Homo sapiens, UniProt P08183). The data set can be described thus: Bidirectional transport assay, efflux ratio in Abcb1KO-MDCKII hMDR1 cells. As to conditions: human, MDCK-MDR1, pH 7.4. As to the method: (§1) Eluent A consisted of 0.1% formic acid in water, eluent B consisted of 0.1% formic acid in acetonitrile. Then, 10 µL samples were injected into the HPLC-MS/MS system. Mass spectrometric detection was performed in SRM mode, and ion transitions for each analyte were optimized during method development. Samples were analyzed in pools, with each pool containing three to four analytes.
For `COc1cc2nc(N3CCN(C(=O)c4ccco4)CC3)nc(N)c2cc1OC` [Prazosin], the efflux ratio (usually the permeability from basolateral to apical divided by that in the opposite direction, in the common usage) at 120 min, 1 µM is 9.35 ± 0.45.
The same measure, in the same setting: as for `C[C@]12C=CC(=O)C=C1CC[C@@H]1[C@@H]2C(=O)C[C@@]2(C)[C@H]1CC[C@]2(O)C(=O)CO` [Prednisone], the figure is 17.3 ± 2.38.

A further data set deals with T2, mouse Mdr1a (Mus musculus, UniProt P21447). Briefly: Bidirectional transport assay, efflux ratio in Abcb1KO-MDCKII mMDR1 cells. As to conditions: mouse, pH 7.4. On the procedure:
as §1
For `COc1cc2nc(N3CCN(C(=O)c4ccco4)CC3)nc(N)c2cc1OC` [Prazosin], the efflux ratio at 120 min, 1 µM is 5.14 ± 0.39.
Regarding `C[C@]12C=CC(=O)C=C1CC[C@@H]1[C@@H]2C(=O)C[C@@]2(C)[C@H]1CC[C@]2(O)C(=O)CO` [Prednisone], the efflux ratio at 120 min, 1 µM stood at 6.6 ± 0.57.

For a further data set, the target named is T3, rat Mdr1a (Rattus norvegicus, UniProt Q6PSM0). Briefly: Bidirectional transport assay, efflux ratio in Abcb1KO-MDCKII rMDR1 cells. Conditions: rat, pH 7.4. On the procedure:
as §1
In the case of `COc1cc2nc(N3CCN(C(=O)c4ccco4)CC3)nc(N)c2cc1OC` [Prazosin], the efflux ratio at 120 min, 1 µM worked out at 6.5 ± 0.22.
As to `C[C@]12C=CC(=O)C=C1CC[C@@H]1[C@@H]2C(=O)C[C@@]2(C)[C@H]1CC[C@]2(O)C(=O)CO` [Prednisone], the efflux ratio at 120 min, 1 µM worked out at 9.6 ± 1.82.

System in the next data set: not listed separately
The data set can be described thus: Bidirectional transport assay, efflux ratio in Abcb1KO-MDCKII-Mock control cells. As to conditions: dog, MDCK, pH 7.4. On the procedure:
as §1
Take `COc1cc2nc(N3CCN(C(=O)c4ccco4)CC3)nc(N)c2cc1OC` [Prazosin]: the efflux ratio at 120 min, 1 µM amounted to 0.72 ± 0.03.
Consider `C[C@]12C=CC(=O)C=C1CC[C@@H]1[C@@H]2C(=O)C[C@@]2(C)[C@H]1CC[C@]2(O)C(=O)CO` [Prednisone], for which the efflux ratio at 120 min, 1 µM is 0.82 ± 0.11.

The next data set has as its target T1, human MDR1. The data set can be described thus: Inhibition of 3H-digoxin or 3H-quinidine bidirectional transport in hMDR1 cells. As to conditions: probe 3H-digoxin 1 µM, 120 min; IC50 from ER.
Turning to `CC(C)(C)NCC(O)COc1ccc(NC(=O)NC2CCCCC2)cc1` (stereo not drawn) [talinolol], the “Inhibition of digoxin transport IC50±SD, hMDR1” value is “no inhibition”.

The same data set, now with this note: probe 3H-quinidine 1 µM, 60 min; IC50 from ER.
Regarding `CC(C)(C)NCC(O)COc1ccc(NC(=O)NC2CCCCC2)cc1` (stereo not drawn) [talinolol], the “Inhibition of quinidine transport IC50±SD, hMDR1” value was “no inhibition”.

For a further data set, the target named is T4, human BCRP (Homo sapiens, UniProt Q9UNQ0).
T4 sequence (Q9UNQ0 1-655): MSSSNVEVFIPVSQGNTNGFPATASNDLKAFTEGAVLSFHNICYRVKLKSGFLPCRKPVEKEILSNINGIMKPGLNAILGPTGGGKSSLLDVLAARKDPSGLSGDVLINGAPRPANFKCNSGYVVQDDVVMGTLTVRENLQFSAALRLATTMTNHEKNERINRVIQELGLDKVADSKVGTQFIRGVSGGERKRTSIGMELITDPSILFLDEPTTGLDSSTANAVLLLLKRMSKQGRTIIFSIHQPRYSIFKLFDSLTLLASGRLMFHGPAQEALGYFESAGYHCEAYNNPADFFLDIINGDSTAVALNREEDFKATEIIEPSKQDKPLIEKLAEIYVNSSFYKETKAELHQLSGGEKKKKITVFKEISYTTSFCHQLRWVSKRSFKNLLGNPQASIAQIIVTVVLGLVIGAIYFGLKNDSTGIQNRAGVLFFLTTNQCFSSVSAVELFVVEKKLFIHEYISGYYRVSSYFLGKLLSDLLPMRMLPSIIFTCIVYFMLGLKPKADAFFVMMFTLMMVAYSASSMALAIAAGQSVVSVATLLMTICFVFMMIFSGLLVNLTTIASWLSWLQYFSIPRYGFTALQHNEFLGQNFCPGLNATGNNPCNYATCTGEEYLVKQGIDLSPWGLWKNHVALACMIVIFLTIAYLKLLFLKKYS
The data set can be described thus: Bidirectional transport assay, efflux ratio in MDCKII-BCRP cells. Conditions: 1 µM, 120 min; mean ± SD. As to the method: as §1
Turning to `COc1cc2nc(N3CCN(C(=O)c4ccco4)CC3)nc(N)c2cc1OC` [Prazosin], the “ER in MDCKII BCRP” value amounted to 14.79 ± 1.68.

Staying with this data set, now noted: human, pH 7.4.
Consider `C[C@]12C=CC(=O)C=C1CC[C@@H]1[C@@H]2C(=O)C[C@@]2(C)[C@H]1CC[C@]2(O)C(=O)CO` [Prednisone], for which the efflux ratio at 120 min, 1 µM turned out to be 1.33 ± 0.1.

The target in another data set is T5, cynomolgus monkey Mdr1 (Macaca fascicularis, UniProt Q8HZQ6). Briefly: Bidirectional transport assay, efflux ratio in Abcb1KO-MDCKII cyMDR1 cells. As to conditions: cynomolgus monkey, pH 7.4. As to the method: as §1
T5 sequence (Q8HZQ6 1-1283): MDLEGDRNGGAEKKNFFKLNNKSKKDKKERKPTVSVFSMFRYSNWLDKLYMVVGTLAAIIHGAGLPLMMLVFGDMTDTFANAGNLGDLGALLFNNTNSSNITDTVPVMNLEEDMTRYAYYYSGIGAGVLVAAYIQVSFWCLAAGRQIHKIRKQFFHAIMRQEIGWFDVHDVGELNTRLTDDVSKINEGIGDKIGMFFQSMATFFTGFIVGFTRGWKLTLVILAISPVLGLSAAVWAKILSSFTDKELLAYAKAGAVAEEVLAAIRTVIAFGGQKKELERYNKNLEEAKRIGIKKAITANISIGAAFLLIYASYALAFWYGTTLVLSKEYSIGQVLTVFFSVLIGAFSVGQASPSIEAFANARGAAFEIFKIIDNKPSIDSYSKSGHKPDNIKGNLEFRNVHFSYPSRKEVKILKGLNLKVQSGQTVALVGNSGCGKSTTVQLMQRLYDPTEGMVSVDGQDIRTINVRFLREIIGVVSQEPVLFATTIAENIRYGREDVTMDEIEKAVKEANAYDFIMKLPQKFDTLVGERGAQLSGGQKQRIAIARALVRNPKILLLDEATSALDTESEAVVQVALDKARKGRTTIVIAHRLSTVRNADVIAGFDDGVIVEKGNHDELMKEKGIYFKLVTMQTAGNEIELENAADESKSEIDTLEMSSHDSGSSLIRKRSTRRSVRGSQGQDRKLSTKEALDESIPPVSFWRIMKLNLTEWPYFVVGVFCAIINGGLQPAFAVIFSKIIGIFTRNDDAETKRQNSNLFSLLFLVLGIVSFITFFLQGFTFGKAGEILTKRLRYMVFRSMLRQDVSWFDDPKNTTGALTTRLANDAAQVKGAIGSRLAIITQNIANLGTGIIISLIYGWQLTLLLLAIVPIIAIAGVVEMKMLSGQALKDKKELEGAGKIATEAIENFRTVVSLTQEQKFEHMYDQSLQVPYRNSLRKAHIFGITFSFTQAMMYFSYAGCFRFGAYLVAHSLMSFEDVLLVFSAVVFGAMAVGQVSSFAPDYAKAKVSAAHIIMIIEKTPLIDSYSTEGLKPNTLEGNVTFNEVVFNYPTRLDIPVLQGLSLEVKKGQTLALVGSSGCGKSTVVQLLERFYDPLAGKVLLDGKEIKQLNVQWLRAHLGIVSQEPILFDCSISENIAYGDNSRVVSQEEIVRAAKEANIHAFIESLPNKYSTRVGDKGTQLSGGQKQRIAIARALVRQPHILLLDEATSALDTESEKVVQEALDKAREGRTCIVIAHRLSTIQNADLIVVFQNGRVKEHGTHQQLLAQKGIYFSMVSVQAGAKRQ
As for `COc1cc2nc(N3CCN(C(=O)c4ccco4)CC3)nc(N)c2cc1OC` [Prazosin], the efflux ratio at 120 min, 1 µM was 2.42 ± 0.15.
As to `C[C@]12C=CC(=O)C=C1CC[C@@H]1[C@@H]2C(=O)C[C@@]2(C)[C@H]1CC[C@]2(O)C(=O)CO` [Prednisone], the efflux ratio at 120 min, 1 µM was 4.41 ± 0.52.

The target of the next data set is T3, rat Mdr1a. The data set can be described thus: Inhibition of 3H-digoxin or 3H-quinidine bidirectional transport in rMDR1 cells. The class given is cell-based. More on the design: rat Mdr1a (NM_133401.1); expressed in transfected cells; host or cells: Abcb1KO-MDCKII (canine kidney, endogenous Abcb1 knocked out), transduced, single-cell clone. As to conditions: Inhibition of digoxin transport IC50±SD, rMDR1, probe 3H-digoxin 1 µM, 120 min; IC50 from ER.
As for `C=C[C@H]1C[N@@]2CC[C@H]1C[C@@H]2[C@@H](O)c1ccnc2ccc(OC)cc12` [Quinidine], half-maximal inhibition (IC50) was put at 2.93 ± 1.43 µM.

Still in this data set, the particulars now being: probe 3H-digoxin 1 µM, 120 min; IC50 from ER.
As to `CC(C)(C)NCC(O)COc1ccc(NC(=O)NC2CCCCC2)cc1` (stereo not drawn) [talinolol], the “Inhibition of digoxin transport IC50±SD, rMDR1” value is “no inhibition”.

The same data set, now with this note: probe 3H-quinidine 1 µM, 30 min; IC50 from ER.
Turning to `CC(C)(C)NCC(O)COc1ccc(NC(=O)NC2CCCCC2)cc1` (stereo not drawn) [talinolol], the “Inhibition of quinidine transport IC50±SD, rMDR1” value is reported as “no inhibition”.

The next data set deals with T5, cynomolgus monkey Mdr1. Briefly: Inhibition of 3H-digoxin or 3H-quinidine bidirectional transport in cyMDR1 cells. As to conditions: probe 3H-quinidine 0.1 µM, 60 min; IC50 from ER.
Take `CC(C)(C)NCC(O)COc1ccc(NC(=O)NC2CCCCC2)cc1` (stereo not drawn) [talinolol]: the “Inhibition of quinidine transport IC50±SD, cyMDR1” value was “no inhibition”.

In another data set the target is T2, mouse Mdr1a. Briefly: Inhibition of 3H-digoxin or 3H-quinidine bidirectional transport in mMDR1 cells. The class given is cell-based. More on the design: mouse Mdr1a (NM_011076.3); expressed in transfected cells; host or cells: Abcb1KO-MDCKII (canine kidney, endogenous Abcb1 knocked out), transduced, single-cell clone. Conditions: Inhibition of digoxin transport IC50±SD, mMDR1, probe 3H-digoxin 1 µM, 120 min; IC50 from ER.
Take `C=C[C@H]1C[N@@]2CC[C@H]1C[C@@H]2[C@@H](O)c1ccnc2ccc(OC)cc12` [Quinidine]: inhibition was half-maximal at 15 ± 4.06 µM (IC50).

Still in this data set, the particulars now being: probe 3H-digoxin 1 µM, 120 min; IC50 from ER.
Take `CC(C)(C)NCC(O)COc1ccc(NC(=O)NC2CCCCC2)cc1` (stereo not drawn) [talinolol]: the “Inhibition of digoxin transport IC50±SD, mMDR1” value is recorded as “no inhibition”.

Still in this data set, the particulars now being: probe 3H-quinidine 1 µM, 60 min; IC50 from ER.
`CC(C)(C)NCC(O)COc1ccc(NC(=O)NC2CCCCC2)cc1` (stereo not drawn) [talinolol]: the “Inhibition of quinidine transport IC50±SD, mMDR1” value is “no inhibition”.
